According to patent US20060069289A1, “Process for production 2-deoxyaldose compound” (MITSUI CHEMICALS, INC., priority 2003, published 2006):

Assay: Stability test of KDG to heat in water (remaining rate observed according to HPLC)
Assay type: physicochemical
Conditions: for Remaining Rate of KDG: water 10 times the amount of KDG
Method: HPLC Analytic Conditions: ShodexAsahipack NH2-P50 (manufactured by Showa Denko K.K.), 50 mM sodium hydrogen phosphate aqueous solution, flow rate of 1 ml/min. and detection UV of 210 nm.
1.21 g (5.61 mmole) of KDG potassium salt was dissolved in 10 g of water (10 times the amount of KDG). pH of the solution was 7.3. Subsequently, when 64 mg (1.69 mmole: 0.3 equivalent) of granular sodium borohydride was added at 25° C., the reaction temperature increased to 33° C. Furthermore, pH after the completion of the reaction was 10.8. After the reaction was completed, when observed by HPLC, the reaction yield of metasaccharic acid was 94%. The reaction heat was observed as remarkable. […] In order to carry out the reaction with the good yield, stability to the heat of KDG was measured in the presence of water with 10 times the amount of KDG. (Table 1) (Table 2) (Table 3)
Here, the results of stability test to the KDG heat in the presence of water 10 times the amount of KDG are shown below. (Table 4)

O=C(O)C(O)CC(O)C(O)CO (stereo not drawn)
Stability (in words) (generated product of the sodium borohydride reduction, aqueous reaction conditions): stable

O=C(O)C(=O)C[C@H](O)[C@H](O)CO [KDG, 2-keto-3-deoxy-D-gluconic acid]
Remaining Rate of KDG (pH 7.0, 25° C., 2 hours): 101%
Remaining Rate of KDG (pH 7.0, 25° C., 4 hours): 100%
Remaining Rate of KDG (pH 7.0, 25° C., 21 hours): 100%
Remaining Rate of KDG (pH 7.0, 25° C., 24 hours): 101%
Remaining Rate of KDG (pH 7.0, 50° C., 2 hours): 100%
Remaining Rate of KDG (pH 7.0, 50° C., 4 hours): 101%
Remaining Rate of KDG (pH 7.0, 50° C., 21 hours): 100%
Remaining Rate of KDG (pH 7.0, 50° C., 24 hours): 99%
Remaining Rate of KDG (pH 8.5, 25° C., 2 hours): 100%
Remaining Rate of KDG (pH 8.5, 25° C., 4 hours): 99%
Remaining Rate of KDG (pH 8.5, 25° C., 21 hours): 101%
Remaining Rate of KDG (pH 8.5, 25° C., 24 hours): 100%
Remaining Rate of KDG (pH 8.5, 50° C., 2 hours): 101%
Remaining Rate of KDG (pH 8.5, 50° C., 4 hours): 100%
Remaining Rate of KDG (pH 8.5, 50° C., 21 hours): 99%
Remaining Rate of KDG (pH 8.5, 50° C., 24 hours): 98%
Remaining Rate of KDG (pH 10.5, 25° C., 2 hours): 102%
Remaining Rate of KDG (pH 10.5, 25° C., 4 hours): 101%
Remaining Rate of KDG (pH 10.5, 25° C., 21 hours): 100%
Remaining Rate of KDG (pH 10.5, 25° C., 24 hours): 101%
Remaining Rate of KDG (pH 10.5, 50° C., 2 hours): 101%
Remaining Rate of KDG (pH 10.5, 50° C., 4 hours): 99%
Remaining Rate of KDG (pH 10.5, 50° C., 21 hours): 94%
Remaining Rate of KDG (pH 10.5, 50° C., 24 hours): 93%
Remaining Rate of KDG (pH 12.0, 4° C., 2 hours): 101%
Remaining Rate of KDG (pH 12.0, 4° C., 4 hours): 99%
Remaining Rate of KDG (pH 12.0, 4° C., 21 hours): 100%
Remaining Rate of KDG (pH 12.0, 4° C., 24 hours): 98%
Remaining Rate of KDG (pH 12.0, 25° C., 2 hours): 99%
Remaining Rate of KDG (pH 12.0, 25° C., 4 hours): 95%
Remaining Rate of KDG (pH 12.0, 25° C., 21 hours): 84%
Remaining Rate of KDG (pH 12.0, 25° C., 24 hours): 79%
Stability to heat (in words) (pH 12.0, 50° C.): remarkably decomposed
Remaining Rate of KDG (pH 12.0, 50° C., 2 hours): 61%
Remaining Rate of KDG (pH 12.0, 50° C., 4 hours): 56%
